Data taken from publication PMC11047580, “Design and Synthesis of Novel Amino and Acetamidoaurones with Antimicrobial Activities” (Antibiotics, 2024).
Converted amounts (≈) assume the structure as drawn.

Legend:
[1] = Cytotoxic assay (resazurin); conditions: human, A498 kidney epithelial cells
[2] = Cytotoxic assay (resazurin); conditions: human, HepG2 liver cells
[3] = tested on: Clostridium botulinum (DSM1985); assay: microbe, parasite or virus in culture; assay type: cell-based; conditions: DSM1985, read-out: MIC Clostridium botulinum (DSM1985)
[4] = tested on: Francisella tularensis (NR-643); assay: microbe, parasite or virus in culture; assay type: cell-based; conditions: read-out: MIC Francisella tularensis (NR-643)
[5] = tested on: Enterococcus faecalis (DSM2570); assay: MIC assay; assay type: cell-based; conditions: two-fold serial dilutions in liquid media, n = 2–3
[6] = tested on: Helicobacter pylori (ATCC43504); assay: MIC assay; assay type: cell-based; conditions: two-fold serial dilutions in liquid media, n = 2–3
[7] = tested on: Mycobacterium abscessus R(CIP 104536^T); assay: MIC assay (REMA); assay type: cell-based; conditions: REMA microdilution, n = 2–3
[8] = tested on: C. albicans DSM10697; assay: MIC assay; assay type: cell-based, Candida albicans; conditions: Candida albicans, DSM10697; two-fold serial dilutions in liquid media; n = 2–3
[9] = tested on: Clostridium perfringens (ATCC13124); assay: microbe, parasite or virus in culture; assay type: cell-based; conditions: ATCC13124, read-out: MIC Clostridium perfringens (ATCC13124)
[10] = tested on: Streptococcus pyogenes (DSM20565); assay: MIC assay; assay type: cell-based; conditions: two-fold serial dilutions in liquid media, n = 2–3
[11] = tested on: Propionibacterium acnes (ATCC6919); assay: MIC assay; assay type: cell-based; conditions: Cutibacterium acnes, two-fold serial dilutions in liquid media, n = 2–3
[12] = tested on: Candida glabrata (DSM11226); assay: MIC assay; assay type: cell-based; conditions: Nakaseomyces glabratus, two-fold serial dilutions in liquid media, n = 2–3
[13] = tested on: M. smegmatis ATCC700084; assay: MIC assay (REMA); assay type: cell-based, Mycobacterium smegmatis; conditions: Mycolicibacterium smegmatis, ATCC700084, REMA microdilution, n = 2–3
[14] = tested on: Klebsiella pneumonia (DSM26371); assay: MIC assay; assay type: cell-based; conditions: two-fold serial dilutions in liquid media, n = 2–3
[15] = tested on: Candida auris (DSM21092); assay: MIC assay; assay type: cell-based; conditions: Candidozyma auris, two-fold serial dilutions in liquid media, n = 2–3
[16] = Cytotoxic assay (resazurin); conditions: human, IMR-90 normal lung fibroblasts
[17] = tested on: S. aureus ATCC6538P; assay: MIC assay; assay type: cell-based, Staphylococcus aureus; conditions: Staphylococcus aureus, ATCC6538P; two-fold serial dilutions in liquid media; n = 2–3
[18] = tested on: Clostridium difficile (DSM1296); assay: MIC assay; assay type: cell-based; conditions: Clostridioides difficile, two-fold serial dilutions in liquid media, n = 2–3
[19] = tested on: Enterococcus faecium (DSM20477); assay: MIC assay; assay type: cell-based; conditions: two-fold serial dilutions in liquid media, n = 2–3
[20] = tested on: Brucella melitensis (NR-256); assay: microbe, parasite or virus in culture; assay type: cell-based; conditions: read-out: MIC Brucella melitensis (NR-256)
[21] = tested on: Mycobacterium abscessus S (CIP 104536^T); assay: MIC assay (REMA); assay type: cell-based; conditions: REMA microdilution, n = 2–3
[22] = tested on: Mycobacterium tuberculosis H37Rv (mc^26230); assay: MIC assay (REMA); assay type: cell-based; conditions: REMA microdilution, n = 2–3
[23] = tested on: MRSA (ATCCBAA-1717); assay: MIC assay; assay type: cell-based, methicillin-resistant S. aureus; conditions: Staphylococcus aureus, read-out: MIC MRSA (ATCCBAA-1717)
[24] = Cytotoxic assay (resazurin); conditions: human, BEAS-2B normal lung epithelial cells
[25] = tested on: Aspergillus fumigatus (DSM819); assay: MIC assay; assay type: cell-based; conditions: two-fold serial dilutions in liquid media, n = 2–3
[26] = tested on: Candida tropicalis (DSM9419); assay: MIC assay; assay type: cell-based; conditions: two-fold serial dilutions in liquid media, n = 2–3
[27] = tested on: Cryptococcus neoformans (DSM11959); assay: MIC assay; assay type: cell-based; conditions: two-fold serial dilutions in liquid media, n = 2–3
[28] = tested on: B. subtilis ATCC6633; assay: MIC assay; assay type: cell-based, Bacillus subtilis; conditions: Bacillus subtilis, ATCC6633; two-fold serial dilutions in liquid media; n = 2–3
[29] = tested on: Bacillus cereus (DSM31); assay: MIC assay; assay type: cell-based; conditions: two-fold serial dilutions in liquid media, n = 2–3
[30] = tested on: Acinetobacter baumannii (DSM30007); assay: MIC assay; assay type: cell-based; conditions: two-fold serial dilutions in liquid media, n = 2–3
[31] = tested on: Listeria monocytogenes (DSM20600); assay: MIC assay; assay type: cell-based; conditions: two-fold serial dilutions in liquid media, n = 2–3
[32] = tested on: E. coli ATCC8739; assay: MIC assay; assay type: cell-based, Escherichia coli; conditions: Escherichia coli, ATCC8739; two-fold serial dilutions in liquid media; n = 2–3
[33] = Cytotoxic assay (resazurin); conditions: human, Caco-2
[34] = tested on: Fusarium oxysporum (DSM62316); assay: MIC assay; assay type: cell-based; conditions: two-fold serial dilutions in liquid media, n = 2–3
[35] = tested on: Salmonella enterica (CIP80.39); assay: MIC assay; assay type: cell-based; conditions: two-fold serial dilutions in liquid media, n = 2–3
[36] = tested on: Shigella flexneri (ATCC12022); assay: MIC assay; assay type: cell-based; conditions: two-fold serial dilutions in liquid media, n = 2–3
[37] = tested on: Yersinia pestis (NR-641); assay: microbe, parasite or virus in culture; assay type: cell-based; conditions: read-out: MIC Yersinia pestis (NR-641)
[38] = tested on: Vibrio alginolyticus (DSM2171); assay: MIC assay; assay type: cell-based; conditions: two-fold serial dilutions in liquid media, n = 2–3
[39] = tested on: Enterobacter cloacae (DSM30054); assay: MIC assay; assay type: cell-based; conditions: two-fold serial dilutions in liquid media, n = 2–3
[40] = Cytotoxic assay, summary over the six human cell types; conditions: human, 48 h exposure
[41] = tested on: Bacillus anthracis (CNR-charbon_04022); assay: microbe, parasite or virus in culture; assay type: cell-based; conditions: read-out: MIC Bacillus anthracis (CNR-charbon_04022)
[42] = Cytotoxic assay (resazurin); conditions: human, HaCaT normal epidermal keratinocytes
[43] = tested on: P. aeruginosa ATCC9027; assay: MIC assay; assay type: cell-based, Pseudomonas aeruginosa; conditions: two-fold serial dilutions in liquid media, n = 2–3

Compound: CC(=O)Nc1ccc2c(c1)C(=O)/C(=C/c1ccc(OC(C)C)cc1)O2 [Compound 20, (Z)-N-(2-(4-isopropoxybenzylidene)-3-oxo-2,3-dihydrobenzofuran-5-yl)acetamide]
- CC50 at 48 h [1]: 453 µM
- IC50 at 48 h [1]: 453 µM
- CC50 at 48 h [2]: > 500 µM
- IC50 at 48 h [2]: > 500 µM
- MIC [3]: 3.12 µM (≈ 1.05 µg/mL)
- MIC [4]: 12.5 µM (≈ 4.22 µg/mL)
- MIC [5]: 100 µM (≈ 33.7 µg/mL)
- MIC [6]: 12.5 µM (≈ 4.22 µg/mL)
- MIC ([7]; Mycobacteroides abscessus, CIP104536, R morphotype): > 100 µM
- MIC Mycobacterium abscessus R(CIP 104536^T) ([7]; R morphotype): inactive
- MIC [8]: 50 µM (≈ 16.9 µg/mL)
- MIC [9]: > 100 µM
- MIC [10]: 50 µM (≈ 16.9 µg/mL)
- MIC [11]: > 100 µM
- MIC [12]: 50 µM (≈ 16.9 µg/mL)
- MIC [13]: 50 µM (≈ 16.9 µg/mL)
- MIC ([14]; Klebsiella pneumoniae, DSM26371): > 100 µM
- MIC [14]: >100 µM
- MIC [15]: 12.5 µM (≈ 4.22 µg/mL)
- CC50 at 48 h [16]: 438 µM
- IC50 at 48 h [16]: 438 µM
- MIC [17]: 12.5 µM (≈ 4.22 µg/mL)
- MIC [18]: 3.12 µM (≈ 1.05 µg/mL)
- MIC [19]: 25 µM (≈ 8.43 µg/mL)
- MIC [20]: 12.5 µM (≈ 4.22 µg/mL)
- MIC ([21]; Mycobacteroides abscessus, CIP104536, S morphotype): > 100 µM
- MIC Mycobacterium abscessus S (CIP 104536^T) ([21]; S morphotype): inactive
- MIC ([22]; Mycobacterium tuberculosis, H37RV): > 100 µM
- MIC Mycobacterium tuberculosis H37Rv (mc^26230) [22]: inactive
- MIC [23]: 25 µM (≈ 8.43 µg/mL)
- CC50 at 48 h [24]: 126 µM
- IC50 at 48 h [24]: 126 µM
- MIC ([25]; Aspergillus fumigatus, DSM819): > 100 µM
- MIC Aspergillus fumigatus (DSM819) [25]: inactive
- MIC [26]: 100 µM (≈ 33.7 µg/mL)
- MIC [27]: 25 µM (≈ 8.43 µg/mL)
- MIC [28]: 25 µM (≈ 8.43 µg/mL)
- MIC [29]: 25 µM (≈ 8.43 µg/mL)
- MIC [30]: 25 µM (≈ 8.43 µg/mL)
- MIC [31]: 6.25 µM (≈ 2.11 µg/mL)
- MIC [32]: 25 µM (≈ 8.43 µg/mL)
- CC50 at 48 h [33]: 186 µM
- IC50 at 48 h [33]: 186 µM
- MIC [34]: 25 µM (≈ 8.43 µg/mL)
- MIC [35]: 50 µM (≈ 16.9 µg/mL)
- MIC [36]: 50 µM (≈ 16.9 µg/mL)
- MIC [37]: 12.5 µM (≈ 4.22 µg/mL)
- MIC [38]: 50 µM (≈ 16.9 µg/mL)
- MIC ([39]; Enterobacter cloacae, DSM30054): > 100 µM
- MIC [39]: >100 µM
- CC50 at 48 h ([40]; Highest CC50, highest of the six human cell types): > 500 µM
- CC50 at 48 h ([40]; Lowest CC50, lowest of the six human cell types): 126 µM
- MIC [41]: 6.25 µM (≈ 2.11 µg/mL)
- CC50 at 48 h [42]: 323 µM
- IC50 at 48 h [42]: 323 µM
- MIC ([43]; Pseudomonas aeruginosa, ATCC9027): > 100 µM
- MIC [43]: >100 µM
